Data: the NIST ThermoML archive (doi:10.1021/acs.jced.7b00429)
Numbers after ± are expanded uncertainties.

Tests used:
[1] = 100 kPa, Liquid; for viscosity: Falling or rolling sphere viscometry; for speed of sound: Frequency=3 MHz, Single path-length method; for mass density: Vibrating tube method
[2] = xn = mol fraction of the nth substance listed; conditions: 100 kPa, Liquid, x2 = 0; for viscosity: Falling or rolling sphere viscometry; for speed of sound: Frequency=3 MHz, Single path-length method; for mass density: Vibrating tube method

CCn1cc[n+](C)c1.O=S(=O)([O-])C(F)(F)F [1-ethyl-3-methylimidazolium trifluoromethanesulfonate]
[1]
Conditions	mass density [kg/m3]	speed of sound [m/s]	viscosity [mPa·s]
298.15 K	1379.91 ± 2.5	1436 ± 10	45.67 ± 14
303.15 K	1375.71 ± 2.5	1425.4 ± 10	38.31 ± 12
308.15 K	1371.51 ± 2.5	1414.3 ± 10	32.38 ± 9.7
313.15 K	1367.36 ± 2.5	1403 ± 10	27.68 ± 8.3
318.15 K	1363.21 ± 2.5	1392.7 ± 10	23.86 ± 7.2
323.15 K	1359.07 ± 2.5	1381.7 ± 10	20.75 ± 6.2

CC#N [acetonitrile]
[1]
Conditions	mass density [kg/m3]	speed of sound [m/s]	viscosity [mPa·s]
298.15 K	776.71 ± 2	1278.5 ± 10	0.34 ± 0.1
303.15 K	771.29 ± 2	1258.4 ± 10	0.32 ± 0.1
308.15 K	765.83 ± 2	1238.2 ± 10	0.31 ± 0.09
313.15 K	760.34 ± 2	1218 ± 10	0.3 ± 0.09
318.15 K	754.82 ± 2	1197.9 ± 10	0.29 ± 0.09
323.15 K	749.25 ± 2	1177.8 ± 10	0.28 ± 0.08

CC#N [acetonitrile] + CCn1cc[n+](C)c1.O=S(=O)([O-])C(F)(F)F
[2]
Conditions	mass density [kg/m3]	speed of sound [m/s]	viscosity [mPa·s]
298.15 K	776.71 ± 2	1278.5 ± 10	0.34 ± 0.1
303.15 K	771.29 ± 2	1258.4 ± 10	0.32 ± 0.1
308.15 K	765.83 ± 2	1238.2 ± 10	0.31 ± 0.09
313.15 K	760.34 ± 2	1218 ± 10	0.3 ± 0.09
318.15 K	754.82 ± 2	1197.9 ± 10	0.29 ± 0.09
323.15 K	749.25 ± 2	1177.8 ± 10	0.28 ± 0.08
